Where a name gives a salt, the structure may show the parent alone.
The compounds below were run against ROCK2 (Homo sapiens, UniProt O75116) (assay: ROCK2 kinase inhibition assay (LABCHIP 3000 Reader, FITC peptide substrate);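 also: rho kinase reaction read by separating phosphorylated from unphosphorylated peptide on chip, with inhibition of kinase activity computed per concentration across a dose-response series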).
Chain of ROCK2 (O75116 whole entry, species assumed): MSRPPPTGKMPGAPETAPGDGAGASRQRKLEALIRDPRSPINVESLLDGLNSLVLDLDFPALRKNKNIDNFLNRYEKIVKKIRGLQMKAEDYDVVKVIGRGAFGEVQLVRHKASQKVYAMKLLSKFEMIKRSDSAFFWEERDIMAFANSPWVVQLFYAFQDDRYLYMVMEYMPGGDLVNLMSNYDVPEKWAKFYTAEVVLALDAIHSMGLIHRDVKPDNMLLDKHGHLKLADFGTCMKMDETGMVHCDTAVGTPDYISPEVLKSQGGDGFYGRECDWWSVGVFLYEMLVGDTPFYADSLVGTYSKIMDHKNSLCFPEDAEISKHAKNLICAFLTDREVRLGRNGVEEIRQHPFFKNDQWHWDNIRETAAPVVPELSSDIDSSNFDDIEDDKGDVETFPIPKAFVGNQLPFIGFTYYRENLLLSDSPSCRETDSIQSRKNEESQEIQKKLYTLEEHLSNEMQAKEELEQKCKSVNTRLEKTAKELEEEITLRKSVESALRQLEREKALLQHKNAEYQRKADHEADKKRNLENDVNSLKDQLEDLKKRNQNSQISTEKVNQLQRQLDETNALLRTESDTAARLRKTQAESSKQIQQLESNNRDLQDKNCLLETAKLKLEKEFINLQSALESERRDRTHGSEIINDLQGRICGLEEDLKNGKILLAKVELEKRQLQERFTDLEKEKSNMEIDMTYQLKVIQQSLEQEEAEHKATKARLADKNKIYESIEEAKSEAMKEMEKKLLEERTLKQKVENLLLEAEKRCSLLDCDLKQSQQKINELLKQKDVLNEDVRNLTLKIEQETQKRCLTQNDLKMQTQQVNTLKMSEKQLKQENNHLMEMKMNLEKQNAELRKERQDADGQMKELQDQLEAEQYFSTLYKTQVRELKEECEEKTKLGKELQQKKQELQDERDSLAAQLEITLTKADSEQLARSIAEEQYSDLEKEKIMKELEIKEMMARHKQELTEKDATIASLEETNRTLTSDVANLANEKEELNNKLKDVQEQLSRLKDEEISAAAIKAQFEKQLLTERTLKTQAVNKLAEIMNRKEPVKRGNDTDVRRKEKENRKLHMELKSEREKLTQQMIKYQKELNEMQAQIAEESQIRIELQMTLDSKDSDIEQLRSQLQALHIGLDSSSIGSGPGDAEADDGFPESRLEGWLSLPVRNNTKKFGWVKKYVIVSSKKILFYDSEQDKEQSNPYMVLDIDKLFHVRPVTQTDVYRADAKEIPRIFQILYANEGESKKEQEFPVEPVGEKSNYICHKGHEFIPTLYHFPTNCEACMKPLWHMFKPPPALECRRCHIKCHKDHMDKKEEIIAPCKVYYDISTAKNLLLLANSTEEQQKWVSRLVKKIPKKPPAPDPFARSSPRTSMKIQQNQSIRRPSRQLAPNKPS

SMILES	IC50 [nM]
[H][C@]1(Oc2ncccc2C(N)=O)C[C@@]2(C[C@H](NC(=O)c3cc(-c4cnn(C(F)F)c4)cc(S(C)(=O)=O)c3)C2)C1 (stereo partly shown) [Example 51]	5 to 50
[H][C@]1(Oc2ncccc2C(N)=O)C[C@@]2(C[C@H](NC(=O)c3cc(-c4cnn(C)c4)cc(S(C)(=O)=O)c3)C2)C1 (stereo partly shown) [Example 52]	5 to 50
[2H]C([2H])([2H])n1cc(-c2cc(C(=O)N[C@H]3CC4(C3)C[C@H](Oc3ncccc3C(N)=O)C4)cc(S(C)(=O)=O)c2)cn1 (stereo partly shown) [Example 53, 2-{[(4s)-6-{3-methanesulfonyl-5-[1-(^2H3)methyl-1H-pyrazol-4-yl]benzamido}spiro[3.3]heptan-2-yl]oxy}pyridine-3-carboxamide]	5 to 50
[H][C@]1(Oc2ncccc2C(N)=O)C[C@@]2(C[C@H](NC(=O)c3cccc(-c4cccc(S(C)(=O)=O)c4)c3)C2)C1 (stereo partly shown) [Example 55]	50 to 250
[H][C@]1(Oc2ncccc2C(N)=O)C[C@@]2(C[C@H](NC(=O)c3cc(Br)cc(OCCC(F)(F)F)c3)C2)C1 (stereo partly shown) [Example 56]	5 to 50
[H][C@]1(Oc2ncccc2C(N)=O)C[C@@]2(C[C@H](NC(=O)c3cc(OCCC(F)(F)F)cc(-c4cnn(C)c4)c3)C2)C1 (stereo partly shown) [Example 57]	50 to 250
[H][C@]1(Oc2ncccc2C(N)=O)C[C@@]2(C[C@H](NC(=O)c3cc(OCCC(F)(F)F)cc(-c4cccc(S(C)(=O)=O)c4)c3)C2)C1 (stereo partly shown) [Example 58]	50 to 250
[H][C@]1(Oc2ncccc2C(N)=O)C[C@@]2(C[C@H](NC(=O)c3cn4nc(OCC(F)(F)F)ccc4n3)C2)C1 (stereo partly drawn) [Example 61, N-((aR)-6-((3-carbamoylpyridin-2-yl)oxy)spiro[3.3]heptan-2-yl)-6-(2,2,2-trifluoroethoxy)imidazo[1,2-b]pyridazine-2-carboxamide]	50 to 250
[H][C@]1(Oc2ncccc2C(N)=O)C[C@@]2(C[C@H](NC(=O)c3cn4cc(C(N)=O)ccc4n3)C2)C1 (stereo partly drawn) [Example 63, N^2-((aR)-6-((3-carbamoylpyridin-2-yl)oxy)spiro[3.3]heptan-2-yl)imidazo[1,2-a]pyridine-2,6-dicarboxamide]	250 to 2500
CC(C)(O)COc1ccc2c(C(=O)N[C@H]3CC4(C3)C[C@H](Oc3ncccc3C(N)=O)C4)cnn2c1 (stereo partly drawn) [Example 64, N-((aR)-6-((3-carbamoylpyridin-2-yl)oxy)spiro[3.3]-heptan-2-yl)-6-(2-hydroxy-2-methylpropoxy) pyrazolo-[1,5-a]pyridine-3-carboxamide, trifluoroacetate]	5 to 50
NC(=O)c1cccnc1O[C@H]1CC2(C[C@H](NC(=O)c3cnc4ccccc4c3)C2)C1 (stereo partly drawn) [Example 72, N-((aR)-6-((3-carbamoylpyridin-2-yl)oxy)spiro[3.3]-heptan-2-yl)quinoline-3-carboxamide, trifluoroacetate]	5 to 50
NC(=O)c1cccnc1O[C@H]1CC2(C[C@H](NC(=O)c3ccc(-n4cccn4)cc3)C2)C1 (stereo partly drawn) [Example 74, 2-((aR)-6-(4-(1H-pyrazol-1-yl)benzamido)spiro[3.3]heptan-2-yl)oxy) nicotinamide, trifluoroacetate]	250 to 2500
N#Cc1ccc2nc(C(=O)N[C@H]3CC4(C3)C[C@H](Oc3ncccc3C(N)=O)C4)cn2c1 (stereo partly drawn) [Example 76, N-((aR)-6-((3-carbamoylpyridin-2-yl)oxy)spiro-[3.3]heptan-2-yl)-6-cyanoimidazo-[1,2-a]pyridine-2-carboxamide, trifluoroacetate]	250 to 2500
COCCOCCn1nc(C(=O)N[C@H]2CC3(C2)C[C@H](Oc2ncccc2C(N)=O)C3)c2ccccc21 (stereo partly drawn) [Example 78, N-((aR)-6-((3-carbamoylpyridin-2-yl)oxy)spiro[3.3]heptan-2-yl)-1-(2-(2-methoxy-ethoxy)ethyl)-1H-indazole-3-carboxamide, trifluoroacetate]	50 to 250
COc1cc(C(=O)N[C@H]2CC3(C2)C[C@H](Oc2ncccc2C(N)=O)C3)ccc1-n1cnc(C)c1 (stereo partly drawn) [Example 79, 2-((aR)-6-(3-methoxy-4-(4-methyl-1H-imidazol-1-yl)benzamido)spiro-[3.3]heptan-2-yl)oxy) nicotinamide, trifluoroacetate]	50 to 250
CN(C)CCOc1ccc2c(C(=O)N[C@H]3CC4(C3)C[C@H](Oc3ncccc3C(N)=O)C4)cnn2c1 (stereo partly drawn) [Example 80, N-((aR)-6-((3-carbamoylpyridin-2-yl)oxy)spiro[3.3]heptan-2-yl)-6-(2-(dimethylamino)ethoxy) pyrazolo[1,5-a] pyridine-3-carboxamdie, trifluoroacetate]	5 to 50
CC(C)(O)Cn1nc(C(=O)N[C@H]2CC3(C2)C[C@H](Oc2ncccc2C(N)=O)C3)c2ccc(Br)cc21 (stereo partly drawn) [Example 81, 6-bromo-N-((aR)-6-((3-carbamoylpyridin-2-yl)oxy)spiro[3.3]heptan-2-yl)-1-(2-hydroxy-2-methylpropyl)-1H-indazole-3-carboxamdie, trifluoroacetate]	5 to 50
NC(=O)c1cccnc1O[C@H]1CC2(C[C@H](NC(=O)c3cnn4cc(OCCC(F)(F)F)ccc34)C2)C1 (stereo partly drawn) [Example 82, N-((aR)-6-((3-carbamoylpyridin-2-yl)oxy)spiro[3.3]heptan-2-yl)-6-(3,3,3-trifluoropropoxy) pyrazolo[1,5-a]pyridine-3-carboxamide, trifluoroacetate]	< 5
Cc1nc(-c2ccccn2)sc1C(=O)N[C@H]1CC2(C1)C[C@H](Oc1ncccc1C(N)=O)C2 (stereo partly drawn) [Example 88, N-((aR)-6-((3-carbamoyl-pyridin-2-yl)oxy)spiro[3.3]heptan-2-yl)-4-methyl-2-(pyridin-2-yl)thiazole-5-carboxamide, trifluoroacetate]	250 to 2500

Second part, the compound after the results:

IC50 [nM]	SMILES
50 to 250	[H][C@]1(Oc2ncccc2C(N)=O)C[C@@]2(C[C@H](NC(=O)c3cccc(-c4cnn(C)c4)c3)C2)C1 (stereo partly shown) [Example 54]
250 to 2500	[H][C@]1(Oc2ncccc2C(N)=O)C[C@@]2(C[C@H](NC(=O)c3cn4nc(OC)ccc4n3)C2)C1 (stereo partly drawn) [Example 59, N-((aR)-6-((3-carbamoylpyridin-2-yl)oxy)spiro[3.3]heptan-2-yl)-6-methoxyimidazo[1,2-b]pyridazine-2-carboxamide]
250 to 2500	[H][C@]1(Oc2ncccc2C(N)=O)C[C@@]2(C[C@H](NC(=O)c3cnc4c(OC)cc(Cl)nn34)C2)C1 (stereo partly drawn) [Example 60, N-((aR)-6-((3-carbamoylpyridin-2-yl)oxy)spiro[3.3]heptan-2-yl)-6-chloro-8-methoxyimidazo[1,2-b]pyridazine-3-carboxamide]
250 to 2500	[H][C@]1(Oc2ncccc2C(N)=O)C[C@@]2(C[C@H](NC(=O)c3cn4nc(Cl)ccc4n3)C2)C1 (stereo partly drawn) [Example 62, N-((aR)-6-((3-carbamoylpyridin-2-yl)oxy)spiro[3.3]heptan-2-yl)-6-chloroimidazo[1,2-b]pyridazine-2-carboxamide]
< 5	CC(C)(O)COc1ccn2c(C(=O)N[C@H]3CC4(C3)C[C@H](Oc3ncccc3C(N)=O)C4)cnc2c1C1CC1 (stereo partly drawn) [Example 65, N-((aR)-6-((3-carbamoylpyridin-2-yl)oxy)spiro[3.3]heptan-2-yl)-8-cyclopropyl-7-(2-hydroxy-2-methylpropoxy) imidazo[1,2-a]pyridine-3-carboxamide, trifluoroacetate]
5 to 50	Cn1nc(C(=O)N[C@H]2CC3(C2)C[C@H](Oc2ncccc2C(N)=O)C3)c2ccccc21 (stereo partly shown) [Example 66]
50 to 250	Cn1ncc2cc(C(=O)N[C@H]3CC4(C3)C[C@H](Oc3ncccc3C(N)=O)C4)ccc21 (stereo partly drawn) [Example 68, N-((aR)-6-((3-carbamoylpyridin-2-yl)oxy)spiro[3.3]heptan-2-yl)-1-methyl-1H-indazole-5-carboxamide, trifluoroacetae]
50 to 250	Cn1c(C(=O)N[C@H]2CC3(C2)C[C@H](Oc2ncccc2C(N)=O)C3)cc2ccccc21 (stereo partly drawn) [Example 70, N-((aR)-6-((3-carbamoylpyridin-2-yl)oxy)spiro[3.3]heptan-2-yl)-1-methyl-1H-indole-2-carboxamide, trifluoroacetate]
250 to 2500	NC(=O)c1cccnc1O[C@H]1CC2(C[C@H](NC(=O)c3ccn4ccnc4c3)C2)C1 (stereo partly drawn) [Example 71, N-((aR)-6-((3-carbamoylpyridin-2-yl)oxy)spiro[3.3]-heptan-2-yl)imidazo[1,2-a] pyridine-7-carboxamdie, trifluoroacetate]
250 to 2500	NC(=O)c1cccnc1O[C@H]1CC2(C[C@H](NC(=O)c3cn4ccccc4n3)C2)C1 (stereo partly drawn) [Example 75, N-((aR)-6-((3-carbamoylpyridin-2-yl)oxy)spiro[3.3]-heptan-2-yl)imidazo[1,2-a] pyridine-2-carboxamide, trifluoroacetate]
5 to 50	Cn1nc(C(C)(C)C)cc1C(=O)N[C@H]1CC2(C1)C[C@H](Oc1ncccc1C(N)=O)C2 (stereo partly drawn) [Example 77, 2-((aR)-6-(3-(tert-butyl)-1-methyl-1H-pyraole-5-carboxamido)spiro[3.3]heptan-2-yl)oxy) nicotinamide, trifluoroacetate]
250 to 2500	Cc1cc(C(=O)N[C@H]2CC3(C2)C[C@H](Oc2ncccc2C(N)=O)C3)n(C)n1 (stereo partly drawn) [Example 83, 2-((aR)-6-(1,3-dimethyl-1H-pyrazole-5-carboxamido)spiro[3.3]heptan-2-yl)oxy)nicotinamide, trifluoroacetate]
50 to 250	Cn1nc(C(=O)N[C@H]2CC3(C2)C[C@H](Oc2ncccc2C(N)=O)C3)cc1OCC1CC1 (stereo partly drawn) [Example 84, 2-((aR)-6-(5-(cyclopropyl-methoxy)-1-methyl-1H-pyrazole-3-carboxamido)spiro-[3.3]heptan-2-yl)oxy) nicotinamide, trifluoroacetate]
50 to 250	Cn1nc(C2CC2)cc1C(=O)N[C@H]1CC2(C1)C[C@H](Oc1ncccc1C(N)=O)C2 (stereo partly drawn) [Example 85, 2-((aR)-6-(3-cyclopropyl-1-methyl-1H-pyrazole-5-carboxamido)spiro[3.3]heptan-2-yl)oxy) nicotinamide, trifluoroacetate]
50 to 250	Cn1nc(C(=O)N[C@H]2CC3(C2)C[C@H](Oc2ncccc2C(N)=O)C3)cc1OCC(F)(F)C(F)F (stereo partly drawn) [Example 87, 2-((aR)-6-(1-methyl-5-(2,2,3,3-tetrafluoropropoxy)-1H-pyrazole-3-carboxamido)spiro[3.3]heptan-2-yl)oxy) nicotinamide, trifluoroacetate]

From patent US10829501B2 (BRISTOL-MYERS SQUIBB COMPANY, priority 2016, dated 2020)
